These results are taken from US9802960B2 (MILLENNIUM PHARMACEUTICALS, INC., priority 2014, dated 2017).

The first assay deals with Human VPS34 (Homo sapiens (Human), UniProt Q8NEB9). Put plainly: Human VPS34 enzyme assay (Adapta TR-FRET). The format is biochemical. As to conditions: compound concentration 1.11 μM. In general terms: TR-FRET usually uses a lanthanide donor and a delayed reading to cut background.
Chain of Human VPS34 (Q8NEB9 whole entry): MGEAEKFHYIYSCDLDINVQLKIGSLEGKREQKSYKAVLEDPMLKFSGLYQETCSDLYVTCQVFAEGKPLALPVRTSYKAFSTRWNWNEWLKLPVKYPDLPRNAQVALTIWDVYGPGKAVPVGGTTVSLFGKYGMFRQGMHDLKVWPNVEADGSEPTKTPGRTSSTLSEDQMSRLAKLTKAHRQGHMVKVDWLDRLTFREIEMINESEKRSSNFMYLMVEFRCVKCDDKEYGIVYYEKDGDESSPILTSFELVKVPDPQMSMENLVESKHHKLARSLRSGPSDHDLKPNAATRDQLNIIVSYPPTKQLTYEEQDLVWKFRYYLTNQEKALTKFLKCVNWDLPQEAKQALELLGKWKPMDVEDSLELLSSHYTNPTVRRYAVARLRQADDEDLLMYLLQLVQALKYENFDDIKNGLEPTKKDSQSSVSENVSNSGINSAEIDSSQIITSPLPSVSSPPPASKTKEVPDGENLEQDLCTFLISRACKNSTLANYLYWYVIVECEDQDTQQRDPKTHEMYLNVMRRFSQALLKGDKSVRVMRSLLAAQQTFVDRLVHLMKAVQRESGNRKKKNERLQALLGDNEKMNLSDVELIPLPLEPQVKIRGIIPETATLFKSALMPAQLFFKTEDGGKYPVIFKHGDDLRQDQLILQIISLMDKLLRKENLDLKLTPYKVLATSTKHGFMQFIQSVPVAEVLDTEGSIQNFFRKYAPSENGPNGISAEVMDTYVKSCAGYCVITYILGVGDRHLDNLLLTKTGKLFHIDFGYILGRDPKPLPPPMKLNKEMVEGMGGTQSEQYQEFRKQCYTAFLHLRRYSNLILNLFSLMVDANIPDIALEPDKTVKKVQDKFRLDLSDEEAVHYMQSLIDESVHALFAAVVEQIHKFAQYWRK
Consider `CC(=O)Nc1cc(-c2cnc(Cl)c(S(=O)(=O)N[C@H](CO)c3ccccc3)c2)ccn1` [Compound I-330, N-(6-chloro-5-{[(1S)-2-hydroxy-1-phenylethyl]sulfamoyl}-3,4′-bipyridin-2′-yl)acetamide], for which the “Percent Inhibition” value is reported as above 99%.

Staying with this assay, now noted: compound concentration 1.11 μM; read-out: Percent Inhibition.
Consider `COc1ncc(-c2ccnc(NC(C)=O)c2)cc1N(C)C(=O)c1ccc(F)cc1F` [Compound I-331, N-(2′-acetamido-6-methoxy-3,4′-bipyridin-5-yl)-2,4-difluoro-N-methylbenzamide], for which the inhibition at 1.11 µM stood at 93%.
With `COC(=O)Nc1cc(-c2cncc(S(=O)(=O)N3CCOCC3)c2)ccn1` [Compound I-332, methyl[5-(morpholin-4-ylsulfonyl)-3,4′-bipyridin-2′-yl]carbamate], the inhibition at 1.11 µM was above 99%.
On to `CC(=O)Nc1cc(-c2cnc(Cl)c(NS(=O)(=O)c3ccc(C(F)(F)F)cc3Cl)c2C)ccn1` [Compound I-333, N-(6-chloro-5-(2-chloro-4-(trifluoromethyl)phenylsulfonamido)-4-methyl-[3,4′-bipyridin]-2′-yl)acetamide], for which the inhibition at 1.11 µM is above 99%.
Same read-out and setting: next, `CC(=O)Nc1cc(-c2cnc3c(c2)S(=O)(=O)N[C@@H](c2ccccc2)CO3)ccn1` [Compound I-334, (S)-N-[4-(1,1-dioxido-3-phenyl-3,4-dihydro-2H-pyrido[2,3-b][1,4,5]oxathiazepin-8-yl)pyridin-2-yl]acetamide]: 82%.
For the compound `CC(=O)Nc1cc(-c2cnc(Cl)c(NS(=O)(=O)c3ccc(C4CC4)cc3F)c2C)ccn1` [Compound I-335, N-(6-chloro-5-{[(4-cyclopropyl-2-fluorophenyl)sulfonyl]amino}-4-methyl-3,4′-bipyridin-2′-yl)acetamide], the inhibition at 1.11 µM worked out at 92%.
Same read-out and setting: next, `Cc1nccc(Nc2cc(-c3cncc(C(C)Oc4ccccc4Cl)c3)ccn2)n1` (stereo not shown) [Compound I-336, 5-[1-(2-chlorophenoxy)ethyl]-N-(2-methylpyrimidin-4-yl)-3,4′-bipyridin-2′-amine]: 96%.
Take `CC(=O)Nc1cc(-c2cnc(N)c(N3CCCC3=O)c2)ccn1` [Compound I-337, N-[6-amino-5-(2-oxopyrrolidin-1-yl)-3,4′-bipyridin-2′-yl]acetamide]: the inhibition at 1.11 µM worked out at 52%.
With `CC(=O)Nc1cc(-c2cncc(S(=O)(=O)NC3CC3)c2)ccn1` [Compound I-338, N-[5-(cyclopropylsulfamoyl)-3,4′-bipyridin-2′-yl]acetamide], the inhibition at 1.11 µM is above 99%.
Regarding `CC(=O)Nc1cc(-c2cnc(C)c(NS(=O)(=O)c3cccc(C)c3F)c2)ccn1` [Compound I-339, N-(5-{[(2-fluoro-3-methylphenyl)sulfonyl]amino}-6-methyl-3,4′-bipyridin-2′-yl)acetamide], the inhibition at 1.11 µM was 98%.
The same measure, in the same setting: then `CC(=O)Nc1cc(-c2cc(NS(=O)(=O)c3ccc(F)cc3F)c3ncnn3c2)ccn1` [Compound I-340, N-[4-(8-{[(2,4-difluorophenyl)sulfonyl]amino}[1,2,4]triazolo[1,5-a]pyridin-6-yl)pyridin-2-yl]acetamide], with 91%.
Same read-out and setting: next, `CC(=O)Nc1cc(-c2cnc(C)c(N3CCCN(C)S3(=O)=O)c2)ccn1` [Compound I-343, N[6-methyl-5-(6-methyl-1,1-dioxido-1,2,6-thiadiazinan-2-yl)-3,4′-bipyridin-2′-yl]acetamide]: above 99%; `COc1ncc(-c2ccnc(NC(C)=O)c2)cc1S(=O)(=O)Nc1ccc(Cl)cc1Cl` [Compound I-344, N-{5-[(2,4-dichlorophenyl)sulfamoyl]-6-methoxy-3,4′-bipyridin-2′-yl}acetamide]: above 99%.
For `Cc1nccc(Nc2cc(-c3cnc(C)c(C(=O)N(C)c4ccc(F)cc4F)c3)ccn2)n1` [Compound I-346, N-(2,4-difluorophenyl)-N,6-dimethyl-2′-[(2-methylpyrimidin-4-yl)amino]-3,4′-bipyridine-5-carboxamide], the inhibition at 1.11 µM worked out at 95%.
As to `COc1ncc(-c2ccnc(NC(C)=O)c2)cc1NC(=O)c1ccc(F)cc1F` [Compound I-347, N-(2′-acetamido-6-methoxy-3,4′-bipyridin-5-yl)-2,4-difluorobenzamide], the inhibition at 1.11 µM amounted to 22%.
In the case of `CC(=O)Nc1cc(-c2cncc(NS(=O)(=O)N(C)C)c2)ccn1` [Compound I-348, N-{5-[(dimethylsulfamoyl)amino]-3,4′-bipyridin-2′-yl}acetamide], the inhibition at 1.11 µM was above 99%.
`Cc1nccc(Nc2cc(-c3cncc(C(C)OCc4ccccn4)c3)ccn2)n1` (stereo not shown) [Compound I-349, N-(2-methylpyrimidin-4-yl)-5-[1-(pyridin-2-ylmethoxy)ethyl]-3,4′-bipyridin-2′-amine]: the inhibition at 1.11 µM stood at 94%.
For the compound `CCCCN(CCCC)S(=O)(=O)Nc1cc(-c2ccnc(NC(C)=O)c2)cnc1C` [Compound I-350, N-{5-[(dibutylsulfamoyl)amino]-6-methyl-3,4′-bipyridin-2′-yl}acetamide], the inhibition at 1.11 µM was above 99%.
The same measure, in the same setting: next, `CC(=O)Nc1cc(-c2cnc(C)c(N3CCNS3(=O)=O)c2)ccn1` [Compound I-352, N-[5-(1,1-dioxido-1,2,5-thiadiazolidin-2-yl)-6-methyl-3,4′-bipyridin-2′-yl]acetamide]: 92%.
Turning to `CC(=O)Nc1cc(-c2cnc(C)c(S(=O)(=O)Nc3ccc(F)cc3F)c2)ccn1` [Compound I-353, N-(5-(N-(2,4-difluorophenyl)sulfamoyl)-6-methyl-[3,4′-bipyridin]-2′-yl)acetamide], the inhibition at 1.11 µM is above 99%.
On to `CC(=O)Nc1cc(-c2cnc(Cl)c(NS(=O)(=O)c3c(Cl)cccc3Cl)c2C)ccn1` [Compound I-354, N-(6-chloro-5-{[(2,6-dichlorophenyl)sulfonyl]amino}-4-methyl-3,4′-bipyridin-2′-yl)acetamide], for which the inhibition at 1.11 µM was 98%.
Still for that read-out and setting: then `Cc1c(-c2ccnc(Nc3ccnc(C4CC4)n3)c2)cnc(Cl)c1N` [Compound I-355, 6-chloro-N~2~′-(2-cyclopropylpyrimidin-4-yl)-4-methyl-3,4′-bipyridine-2′,5-diamine], with 91%; and `CC(=O)Nc1cc(-c2cnc(C)c(NS(=O)(=O)c3ccc(C#N)cc3F)c2)ccn1` [Compound I-356, N-(5-{[(4-cyano-2-fluorophenyl)sulfonyl]amino}-6-methyl-3,4′-bipyridin-2′-yl)acetamide], with above 99%.
On to `CC(=O)Nc1cc(-c2cnc(C)c(N3CC(NCc4ccccc4)CS3(=O)=O)c2)ccn1` (stereo not shown) [Compound I-357, N-{5-[4-(benzylamino)-1,1-dioxidoisothiazolidin-2-yl]-6-methyl-3,4′-bipyridin-2′-yl}acetamide], for which the inhibition at 1.11 µM was above 99%.
On to `COc1ncc(-c2ccnc(NC(C)=O)c2)cc1S(=O)(=O)Nc1cc(F)ccc1F` [Compound I-358, N-{5-[(2,5-difluorophenyl)sulfamoyl]-6-methoxy-3,4′-bipyridin-2′-yl}acetamide], for which the inhibition at 1.11 µM was above 99%.
Same read-out and setting: next, `CC(=O)Nc1cc(-c2cnc(C)c(OS(=O)(=O)N(C)C)c2)ccn1` [Compound I-359, 2′-acetamido-6-methyl-3,4′-bipyridin-5-yl dimethylsulfamate]: above 99%.
Still for that read-out and setting: then `Cc1c(-c2ccnc(Nc3ccnc(C4CC4)n3)c2)cnc(Cl)c1C(=O)N1CCC1` [Compound I-361, azetidin-1-yl(6-chloro-2′-((2-cyclopropylpyrimidin-4-yl)amino)-4-methyl-[3,4′-bipyridin]-5-yl)methanone], with 90%; and `CC(=O)Nc1cc(-c2cnc(Cl)c(NS(=O)(=O)c3ccc(C#N)cc3Cl)c2C)ccn1` [Compound I-362, N-(6-chloro-5-{[(2-chloro-4-cyanophenyl)sulfonyl]amino}-4-methyl-3,4′-bipyridin-2′-yl)acetamide], with 95%; and `Cc1nccc(Nc2cc(-c3cnc(C)c(OCc4ccccc4)c3)ccn2)n1` [Compound I-363, 5-(benzyloxy)-6-methyl-N-(2-methylpyrimidin-4-yl)-3,4′-bipyridin-2′-amine], with 83%.
Take `CCOC(=O)Nc1cc(-c2cnc(C)c(NS(=O)(=O)N(C)C)c2)ccn1` [Compound I-364, ethyl {5-[(dimethylsulfamoyl)amino]-6-methyl-3,4′-bipyridin-2′-yl}carbamate]: the inhibition at 1.11 µM was above 99%.
With `CC(=O)Nc1cc(-c2cncc(S(=O)(=O)N(C)c3ccccc3)c2)ccn1` [Compound I-365, N-{5-[methyl(phenyl)sulfamoyl]-3,4′-bipyridin-2′-yl}acetamide], the inhibition at 1.11 µM was above 99%.
The same measure, in the same setting: next, `CC(=O)Nc1cc(-c2cnc(Cl)c(S(=O)(=O)NC34CC(C3)C4)c2)ccn1` [Compound I-366, N-[5-(bicyclo[1.1.1]pent-1-ylsulfamoyl)-6-chloro-3,4′-bipyridin-2′-yl]acetamide]: above 99%.
Same read-out and setting: then `CCNC(=O)Nc1cc(-c2ccnc(Nc3ccnc(C)n3)c2)cnc1C` [Compound I-367, 1-ethyl-3-{6-methyl-2′-[(2-methylpyrimidin-4-yl)amino]-3,4′-bipyridin-5-yl}urea], with 76%; and `Cc1ncc(-c2ccnc(Nc3ccnc(C4CC4)n3)c2)cc1NC(=O)N1CC(F)(F)C1` [Compound I-368, N-(2′-((2-cyclopropylpyrimidin-4-yl)amino)-6-methyl-[3,4′-bipyridin]-5-yl)-3,3-difluoroazetidine-1-carboxamide], with 96%; and `Cc1c(-c2ccnc(Nc3ccnc(C4CC4)n3)c2)cnc(Cl)c1C(=O)O` [Compound I-369, 6-chloro-2′-((2-cyclopropylpyrimidin-4-yl)amino)-4-methyl-[3,4′-bipyridine]-5-carboxylic acid], with 97%.
Turning to `CCN(CC)S(=O)(=O)c1cc(-c2ccnc(NC(C)=O)c2)cnc1C` [Compound I-370, N-[5-(diethylsulfamoyl)-6-methyl-3,4′-bipyridin-2′-yl]acetamide], the inhibition at 1.11 µM is above 99%.

The same assay, now with this note: read-out: Percent Inhibition.
Turning to `CC(=O)Nc1cc(-c2cnc(C)c(NS(=O)(=O)N3CCCCCC3)c2)ccn1` [Compound I-341, N-{5-[(azepan-1-ylsulfonyl)amino]-6-methyl-3,4′-bipyridin-2′-yl}acetamide], the inhibition at 1.11 µM was above 99%.

The term inhibition denotes the change of the read-out against control, counted positive when it falls.
